Data taken from ChEMBL document CHEMBL1201862, “PubChem BioAssay data set” (2004).
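Test compounds were applied to cells in 96-well plates for 48 hours at 5 doses. GI50 marks 50% less growth.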 The source made the active and inactive calls. No stated cut-off is given here; in the data, active = GI50 up to about 1.1 µM and inactive = higher.

Assays:
Assay in all cases: NCI tumour cell line growth inhibition, 48 h
HT-29 = system: HT-29
ACHN = system: ACHN
A498 = system: A498
SN12C = system: SN12C
LOX IMVI = system: LOX IMVI
IGROV-1 = system: IGROV-1
TK-10 = system: TK-10
SK-OV-3 = system: SK-OV-3
SK-MEL-28 = system: SK-MEL-28
OVCAR-8 = system: OVCAR-8
SW-620 = system: SW-620
MCF7 = system: MCF7
COLO 205 = system: COLO 205
CAKI-1 = system: CAKI-1
T47D = system: T47D
HOP-62 = system: HOP-62
CCRF-CEM = system: CCRF-CEM
SF-268 = system: SF-268
UACC-62 = system: UACC-62

| Structure (SMILES) | GI50 (HT-29) | GI50 (ACHN) | GI50 (A498) | GI50 (SN12C) | GI50 (LOX IMVI) | GI50 (IGROV-1) | GI50 (TK-10) | GI50 (SK-OV-3) | GI50 (SK-MEL-28) | GI50 (OVCAR-8) | GI50 (SW-620) | GI50 (MCF7) | GI50 (COLO 205) | GI50 (CAKI-1) | GI50 (T47D) | GI50 (HOP-62) | GI50 (CCRF-CEM) | GI50 (SF-268) | GI50 (UACC-62) |
| --- | --- | --- | --- | --- | --- | --- | --- | --- | --- | --- | --- | --- | --- | --- | --- | --- | --- | --- | --- |
| COC1=CC(=O)C(O)=C(C[C@@]2(C)[C@@H]3CCC[C@H](COC(=O)CCCCCNC(=O)OC(C)(C)C)[C@@]3(C)CC[C@@H]2C)C1=O | 5.12 µM (inactive) | 3.32 µM (inactive) | > 10 µM (inactive) | > 10 µM (inactive) | > 10 µM (inactive) | 3.61 µM (inactive) | > 10 µM (inactive) | > 10 µM (inactive) | 8.63 µM (inactive) | 6.73 µM (inactive) | 6.34 µM (inactive) | 4.22 µM (inactive) | 4.08 µM (inactive) | 4.61 µM (inactive) | 4.45 µM (inactive) | 5.08 µM (inactive) | 1.09 µM (active) | 5.85 µM (inactive) |  |
| COC(=O)c1cc(CC2Cc3cc4c(cc3C2)CCC4)cc2c1CCC2 | 49 µM (inactive) | > 100 µM (inactive) | > 100 µM (inactive) | > 100 µM (inactive) | 56.5 µM (inactive) | 97.1 µM (inactive) | > 100 µM (inactive) | > 100 µM (inactive) | > 100 µM (inactive) | > 100 µM (inactive) | > 100 µM (inactive) | 89.1 µM (inactive) | > 100 µM (inactive) | > 100 µM (inactive) | > 100 µM (inactive) | > 100 µM (inactive) | 52.5 µM (inactive) | > 100 µM (inactive) |  |
| COP(=O)(OC)[C@@](O)(c1ccccc1)[C@@H](O)[C@@H](O)c1ccccc1 | > 100 µM (inactive) | > 100 µM (inactive) | > 100 µM (inactive) | > 100 µM (inactive) | 17.8 µM (inactive) | 87.5 µM (inactive) | > 100 µM (inactive) | > 100 µM (inactive) | > 100 µM (inactive) | > 100 µM (inactive) | 44.7 µM (inactive) | 27.6 µM (inactive) | > 100 µM (inactive) | > 100 µM (inactive) | > 100 µM (inactive) |  | 21.7 µM (inactive) | > 100 µM (inactive) | > 100 µM (inactive) |
| CC(=N\N)/C(C)=N/N=C(C)/C(C)=N/N=C(C)/C(C)=N/N | > 100 µM (inactive) | > 100 µM (inactive) | > 100 µM (inactive) | > 100 µM (inactive) | > 100 µM (inactive) | > 100 µM (inactive) | > 100 µM (inactive) | > 100 µM (inactive) | > 100 µM (inactive) | > 100 µM (inactive) | > 100 µM (inactive) | > 100 µM (inactive) | > 100 µM (inactive) | > 100 µM (inactive) | > 100 µM (inactive) | > 100 µM (inactive) | > 100 µM (inactive) | > 100 µM (inactive) |  |
| CSc1nc(=S)[nH]c2[nH]nc(C)c12 | > 100 µM (inactive) |  | 73.3 µM (inactive) | > 100 µM (inactive) | > 100 µM (inactive) |  | > 100 µM (inactive) | > 100 µM (inactive) | > 100 µM (inactive) | > 100 µM (inactive) | > 100 µM (inactive) | > 100 µM (inactive) | > 100 µM (inactive) | > 100 µM (inactive) | > 100 µM (inactive) |  | > 100 µM (inactive) | > 100 µM (inactive) | > 100 µM (inactive) |
| Oc1cccc(-c2nc3cc(F)ccc3s2)c1 | 16.6 µM (inactive) | 23.8 µM (inactive) | 1.11 µM (active) | 23.4 µM (inactive) | 15.6 µM (inactive) | 2.34 µM (inactive) | 12.4 µM (inactive) | 16.7 µM (inactive) | 19.2 µM (inactive) | 20.6 µM (inactive) | 22 µM (inactive) | 1.6 µM (inactive) | 15.1 µM (inactive) | 15.1 µM (inactive) | 0.225 µM (active) |  | 22.3 µM (inactive) | 23.9 µM (inactive) | 14.5 µM (inactive) |
